# Results published in patent US8980891B2, “Crystalline forms of certain 3-phenyl-pyrazole derivatives as modulators of the 5-HT2A serotonin receptor useful for the treatment of disorders related thereto” (Arena Pharmaceuticals, Inc., priority 2009, dated 2015).
# How the values were obtained:
# [1] = slurry of the anhydrous form in water; assay type: physicochemical; settings: stirred at about 26-28° C. for ~3 days
# Procedure: A slurry of anhydrous 4-(2-(4-(3-methoxybenzamido)-2-(1-methyl-1H-pyrazol-5-yl)phenoxy)ethyl)morpholin-4-ium chloride in water was stirred at ambient/stir plate temperature (about 26-28° C.) for ˜3 days.
# [2] = tested on: DOCA-salt induced hypertension; settings: rats; cited from earlier work
# [3] = tested on: glaucoma patients; settings: cited from earlier work
# [4] = tested on: JC virus; settings: cited from earlier work
# [5] = biological target: 5-HT2A (Homo sapiens, UniProt P28223); settings: cited from earlier work
# [6] = tested on: heatstroke; settings: in vivo; cited from earlier work
# [7] = tested on: spontaneously hypertensive rats; settings: cited from earlier work
# [8] = tested on: diabetic nephropathy; settings: trial of 24 months of treatment; cited from earlier work
# [9] = tested on: thermal induced pain; settings: rats, intraperitoneal administration; cited from earlier work
# [10] = tested on: inflammatory pain; settings: rats, intrathecal or intraperitoneal administration; cited from earlier work
# [11] = tested on: lower back pain, leg pain and numbness associated with sciatica; settings: humans; cited from earlier work
# 5-HT2A, sequence (P28223 whole entry, species assumed): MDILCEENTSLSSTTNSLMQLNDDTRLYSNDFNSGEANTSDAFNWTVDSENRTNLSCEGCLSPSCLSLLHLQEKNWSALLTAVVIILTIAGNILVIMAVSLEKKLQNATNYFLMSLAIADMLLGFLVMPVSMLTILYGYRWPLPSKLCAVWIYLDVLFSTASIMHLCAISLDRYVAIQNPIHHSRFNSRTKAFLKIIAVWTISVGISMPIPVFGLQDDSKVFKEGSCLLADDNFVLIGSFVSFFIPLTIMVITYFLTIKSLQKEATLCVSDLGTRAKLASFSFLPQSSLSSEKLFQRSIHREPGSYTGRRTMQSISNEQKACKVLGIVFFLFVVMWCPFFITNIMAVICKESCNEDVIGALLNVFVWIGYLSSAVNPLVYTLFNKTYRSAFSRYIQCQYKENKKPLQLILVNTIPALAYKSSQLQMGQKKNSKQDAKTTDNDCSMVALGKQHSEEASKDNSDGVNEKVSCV
smiles,measurement,setting,value
"COc1cccc(C(=O)Nc2ccc(OCCN3CCOCC3)c(-c3ccnn3C)c2)c1.Cl [Example 1, 4-(2-(4-(3-Methoxybenzamido)-2-(1-methyl-1H-pyrazol-5-yl)phenoxy)ethyl)morpholin-4-ium chloride]",solid form recovered after slurry in water,[1],anhydrous form was recovered
CN1CCN2c3ccccc3Cc3ccccc3C2C1 (centres unmarked) [Mainserin],DOCA-salt induced hypertension,[2],prevent
O=C(c1ccc(F)cc1)C1CCN(CCn2c(=O)[nH]c3ccccc3c2=O)CC1 [ketanserin],IOP,[3],significantly lower
same,JC virus infection of human glial cells,[4],inhibited
same,activity at 5-HT2A,[5],inverse agonist activity
same,"protection against circulatory shocks, intracranial hypertension, and cerebral ischemia during heatstroke",[6],protect
same,blood pressure,[7],stabilize
Cc1nc2sccn2c(=O)c1CCN1CCC(=C(c2ccc(F)cc2)c2ccc(F)cc2)CC1 [ritanserin],JC virus infection of human glial cells,[4],inhibited
same,activity at 5-HT2A,[5],inverse agonist activity
COc1cccc(CCc2ccccc2OCC(CN(C)C)OC(=O)CCC(=O)O)c1 (centres unmarked) [sarpogrelate],urinary albumin excretion level,[8],significantly reduced
same,IOP,[3],significantly lower
same,analgesic effect on thermal induced pain,[9],significant analgesic effect
same,analgesic effect on inflammatory pain,[10],significant analgesic effect
same,"treatment for lower back pain, leg pain and numbness associated with sciatica brought on by lumbar disc herniation",[11],effective treatment
